Assay results published in patent publication US6201015A, “Therapeutic method for thrombocytopathy treatment” (priority 1996, dated 2001).
Where two headings read alike, the source gives them in different places. One block for each compound: values may come before it.

Assays:
cAMP in the platelets = assay: cAMP concentration in platelets stimulated with BPS (EIA kit); format: cell-based, human (healthy subject); settings: for cyclic AMP (× basal level): SQ-29548, five cases
Procedure: A blood specimen taken from a healthy subject was centrifuged to thereby separate platelet rich plasma (PRP). To PRP was added SQ-29548, a TXA2 antagonist, and then Compound 1 was added thereto. After 1 minute, BPS (100 nM) was added to PRP, and then the reaction was stopped by 5% TCA. Thereafter, cAMP in the platelets was extracted and the cAMP concentration was determined with an EIA kit (BIOTRAK cAMP EIA SYSTEM, Amersham). The experiment was carried out on one group composed of five cases. The results are shown in Table 5 (*: P<0.05, Paired t-test).

[1] = system: platelets (platelet rich plasma); assay: Antagonistic Action on Inhibition of Platelet Aggregation (ADP-induced, SQ-29548 present, BPS or PGD2 as inhibitor); format: cell-based, human (healthy subject); settings: for IC50: Homo sapiens, Platelet, ADP-induced aggregation, SQ-29548
Procedure: A blood specimen sampled from a healthy subject was centrifuged to thereby separate platelet rich plasma (PRP) and platelet poor plasma (PPP). To the PRP was added SQ-29548, a TXA2 antagonist, and then Compound 1 was added one minute after, beraprost sodium (BPS), a prostacyclin derivative, or prostaglandin D2 (PGD2) was added to the PRP, and 1 minute thereafter, aggregation was induced by ADP. The 50% inhibitory concentration (IC50) of BPS or PGD2 was then calculated from the results. The experiment was performed on one group composed of three specimens. The results are set forth in Tables 3 and 4 (*: P<0.05, Paired t-test).

[2] = system: platelets (platelet rich plasma); assay: Action on Platelet Aggregation (3): ADP-induced platelet aggregation in the presence of SQ-29548; format: cell-based, human (healthy subject); settings: concentration within the range of 0.1 to 10 μM, Control 38 ± 4.9, *P<0.05 paired t-test
Procedure: A blood specimen taken from a healthy subject was centrifuged to thereby separate platelet rich plasma (PRP) and platelet poor plasma (PPP). To PRP was added SQ-29548, a TXA2 antagonist, and 1 minute after, platelet aggregation was induced by ADP, and immediately after induction, any of Compounds 2 to 4 having the following structural formulae was added to PRP. The experiment was performed on one group comprising three subjects. The results are set forth in Table 6 (*: P<0.05, Paired t-test).
Compound 2 to 4 were respectively used at a concentration within the range of 0.1 to 10 μM.

[3] = system: platelets (platelet rich plasma); assay: Action on Platelet Aggregation (2): ADP-induced platelet aggregation in the presence of SQ-29548; format: cell-based, human (healthy subject)
Procedure: A blood specimen sampled from a healthy subject was centrifuged to thereby separate platelet rich plasma (PRP) and platelet poor plasma (PPP). SQ-29548, a TXA2 antagonist, was added to PRP, and 1 minute later, platelet aggregation was induced by ADP, and immediately after induction, Compound 1 was added thereto. The experiment was carried out on one group comprising three samples. The test results are shown in Table 2 (*: P<0.05, Paired t-test).

[4] = system: platelets (platelet rich plasma); assay: Action on Platelet Aggregation (1): aggregation induction in PRP in the presence of SQ-29548; format: cell-based, human (healthy subject); settings: for Number of Aggregation Induction: PRP with SQ-29548, three samples
Procedure: A blood specimen sampled from a healthy subject was centrifuged to thereby separate platelet rich plasma (PRP) and platelet poor plasma (PPP). The agent SQ-29548 (refer to Prostaglandins, 1985;29;785), a TXA2 antagonist, was added to PRP, and 1 minute later, a test drug having the following structure (hereinafter referred to as "Compound 1") was added thereto. The experiment was conducted on one group comprising three samples.

platelets = settings: background; cited from earlier work
[5] = background; cited from earlier work
[6] = cited from earlier work
[7] = cited from earlier work; remark: listed apart in the source

IC50 ([1]; Compound 1 0 μM, read-out: IC50 of BPS): 7.99 ± 1.4 nM
IC50 ([1]; in the presence of Compound 1 0.1 μM, read-out: IC50 of BPS): 21.1 ± 4.7 nM
IC50 ([1]; in the presence of Compound 1 1 μM, *P<0.05, read-out: IC50 of BPS): 36.7 ± 7.4 nM
Compound: CC#CCC(C)[C@H](O)/C=C/[C@@H]1[C@H]2c3cccc(CCCC(=O)O)c3O[C@H]2C[C@H]1O (mixture of isomers) [BPS, beraprost sodium]
cyclic AMP (× basal level) (cAMP in the platelets; BPS 100 nM, Compound 1 0 μM): 8.46 ± 1.8 × basal level

Compound: CCCCC(C)(C)[C@H](O)/C=C/[C@@H]1[C@H]2c3cccc(CCC(=O)O)c3O[C@H]2C[C@H]1O (relative stereo) [Compound 2]
Platelet Aggregation Rate [2]: 45 ± 6.1%

Compound: CC(C)(Oc1ccccc1)[C@H](O)/C=C/[C@@H]1[C@H]2c3cccc(CCC(=O)O)c3O[C@H]2C[C@H]1O (relative stereo) [Compound 4]
Platelet Aggregation Rate [2]: 54 ± 4.1%

Compound: CC(C)(Oc1ccccc1)[C@H](O)/C=C/[C@@H]1[C@H]2c3cccc(CCC(=O)O)c3O[C@H]2C[C@H]1O [Compound 1]
Platelet Aggregation Rate ([3]; Compound 1 0.1 μM, without Compound 1: 52.0 ± 2.5, *P<0.05 paired t-test): 61.3 ± 2.9%
Platelet Aggregation Rate ([3]; Compound 1 1 μM, without Compound 1: 52.0 ± 2.5, asterisk not given): 70.0 ± 3.0%
effect on aggregation of platelets (in words) ([3]; Compound 1 0.1 and 1 μM): enhanced aggregation of platelets
Number of Aggregation Induction ([4]; Compound 1 0.1 μM): 0
Number of Aggregation Induction ([4]; Compound 1 1 μM): 0
Number of Aggregation Induction ([4]; Compound 1 10 μM): 0
induction of platelet aggregation (in words) ([4]; in the presence of SQ-29548, 0.1-10 μM): did not induce platelet aggregation
effect on cAMP production (in words) (cAMP in the platelets; BPS 100 nM, Compound 1 0.1 and 1 μM): inhibited cAMP production of BPS in platelets
cyclic AMP (× basal level) (cAMP in the platelets; Compound 1 0.1 μM with BPS 100 nM, *P<0.05): 6.45 ± 1.4 × basal level
cyclic AMP (× basal level) (cAMP in the platelets; Compound 1 1 μM with BPS 100 nM, *P<0.05): 3.98 ± 0.9 × basal level
antagonism of inhibition of platelet aggregation (in words) ([1]; Compound 1 0.1 and 1 μM against BPS or PGD2): physiologically antagonized inhibitory actions of BPS and PGD2 on platelet aggregation

Compound: O=C(O)CCc1cccc2c1OC1CC(O)C(C=CC(O)COc3ccccc3)C21 (centres unmarked) [Compound 3]
Platelet Aggregation Rate [2]: 43 ± 5.3%

Compound: CCCCC[C@H](O)/C=C/[C@@H]1[C@@H](CC(=O)CCCCC(=O)O)[C@@H](O)C[C@H]1O [Compound 6-oxo-PGF1a, 6-oxo-PGF1a]
known activity (in words) (platelets): almost no physiological activity

Compound: NC(=O)CC[C@@H]1NC(=O)[C@H](Cc2ccccc2)NC(=O)[C@H](Cc2ccc(O)cc2)NC(=O)CCSSC[C@@H](C(=O)N2CCC[C@H]2C(=O)N[C@H](CCCN=C(N)N)C(=O)NCC(N)=O)NC(=O)[C@H](CC(N)=O)NC1=O [DDAVP, 1-diamino 8-D-arginine vasopressin]
adverse drug reactions (in words) [5]: may induce arterial thrombosis and/or hyponatremia

IC50 ([1]; Compound 1 0 μM, read-out: IC50 of PGD2): 38.8 ± 2.5 nM
IC50 ([1]; in the presence of Compound 1 0.1 μM, read-out: IC50 of PGD2): 71.2 ± 8.2 nM
IC50 ([1]; in the presence of Compound 1 1 μM, *P<0.05, read-out: IC50 of PGD2): 194 ± 28 nM
Compound: CCCCC[C@H](O)/C=C/[C@H]1C(=O)C[C@H](O)[C@@H]1C/C=C\CCCC(=O)O [PGD2, prostaglandin D2]

Compound: CCCCC[C@H](O)/C=C/[C@@H]1[C@H]2C/C(=C/CCCC(=O)O)O[C@H]2C[C@H]1O [PGI2, prostaglandin I2]
stability in neutral aqueous solution (in words) [6]: extremely unstable even in a neutral aqueous solution
known activity (in words) (platelets): strong antiplatelet activity and telangiectatic activity
stability and duration of activity in vivo (in words) [7]: unstable in vivo and its activity is not long-lasting
